No end group written: not given here.

The subject of data set [1] is DP9. Put plainly: 1.7 milliunits of recombinant DP9 in assay buffer: 50 mM Tris, 100 mM NaCl, pH 8.0. The note with it: human, 37 °C, up to 24 h.
Data set [2] deals with DP8. Put plainly: 1.7 milliunits of recombinant DP8 in assay buffer: 50 mM Tris, 100 mM NaCl, pH 8.0. The note with it: human, 37 °C, up to 24 h.
In data set [3] the test system is DP9. The note with it: cited from earlier work. The text has this: (§1) In vitro, both DP8 and DP9 cleave the well known DP4 substrates neuropeptide Y(1–36), glucagon-like peptide-1(7–36), glucagon-like peptide-2(1–33), and peptide YY(1–36) ([18], [19]). […] However, as DP8 and DP9 are intracellular enzymes, it is unlikely that these secreted substrates will be of physiological relevance in vivo. Clues for their in vivo roles come from studies blocking DP ...

Data set [4] has as its system DP8. The note with it: cited from earlier work.
Source text: as §1

Take AEVKKPAAAAAPGTAEKLSP: the not cleaved entry with DP9 [1] and in the data set with DP8 [2] was “nc (not cleaved) after 24 h” throughout.
For APAEILNGKEISAQIR, the cleaved bond entry in the data set with DP9 [1] and in the data set with DP8 [2] was “P-A” each time.
As for APGQLALFSVSDKTGLVEFAR, the cleaved bond result in the data set with DP9 [1] and with DP8 [2] was “P-G” throughout.
Take APKFPDSVEELRAAG: the cleaved bond result in the data set on DP9 [1] and with DP8 [2] was “P-K” in each case.
With APLDLDKYVEIARLCK, the cleaved bond result in the data set on DP9 [1] and in the data set with DP8 [2] was “P-L” in each case.
Consider APSVPAAEPEYPKGIR, for which the cleaved bond entry was “P-S, 1 h” in the data set with DP9 [1] and “P-S, 1 h” in the data set with DP8 [2].
APVLSKDSADIESILALNPR: the cleaved bond entry in the data set with DP9 [1] and in the data set on DP8 [2] was “P-V” each time.
As for ASGANFEYIIAEKRGK, the not cleaved result in the data set on DP9 [1] and in the data set with DP8 [2] was “nc (not cleaved) after 24 h” throughout.
For the molecule ATAKGIAIGIDLGTTYSCVG, the not cleaved result in the data set on DP9 [1] and in the data set on DP8 [2] was “nc (not cleaved) after 24 h” throughout.
As to DDEVDVDGTVEEDLGKSR, the not cleaved result in the data set on DP9 [1] and in the data set on DP8 [2] was “nc (not cleaved) after 24 h” in each case.
As to EPAVYFKEQFLDGDGWTSR, the cleaved bond result in the data set on DP9 [1] is given as “P-A, 1 h”; in the data set with DP8 [2], “P-A, 1 h”.
Consider PPKKGGDGIKPPPIIGR, for which the cleaved bond entry in the data set with DP9 [1] and in the data set on DP8 [2] was “P-K” in each case.
As for SPADLPKSWDWRNVDG, the cleaved bond result in the data set with DP9 [1] and in the data set on DP8 [2] was “P-A” throughout.
Take VSKPTLKEVVIVSATR: the not cleaved entry with DP9 [1] and in the data set with DP8 [2] was “nc (not cleaved) after 24 h” in each case.
Take “glucagon-like peptide-1(7–36): well known DP4 substrate (HAEGTFTSDVSSYLEGQAAKEFIAWLVKGR; ends and bridges not checked; UniProt P01275 98-127, looked up)”: the “Cleavage by DP9 in vitro” value in the data set with DP9 [3] was “cleave”. Further, the “Cleavage by DP8 in vitro” value with DP8 [4] was “cleave”.
“glucagon-like peptide-2(1–33): well known DP4 substrate (HADGSFSDEMNTILDNLAARDFINWLIQTKITD; Glucagon-like peptide 2; UniProt P01275 146-178, looked up)”: the “Cleavage by DP9 in vitro” value in the data set on DP9 [3] was “cleave”. In addition, in the data set on DP8 [4], the “Cleavage by DP8 in vitro” value is recorded as “cleave”.
For “interferon-γ-inducible protein: chemokine, known DP4 substrate”, in the data set on DP8 [4], the “DP8 cleavage of chemokines in vitro” value was “cleavage”.
For “neuropeptide Y(1–36): well known DP4 substrate”, in the data set on DP9 [3], the “Cleavage by DP9 in vitro” value is on record as “cleave”. For the same molecule, the “Cleavage by DP8 in vitro” value in the data set on DP8 [4] is on record as “cleave”.
Regarding “peptide YY(1–36): well known DP4 substrate”, in the data set on DP9 [3], the “Cleavage by DP9 in vitro” value was “cleave”. Besides, the “Cleavage by DP8 in vitro” value in the data set with DP8 [4] is “cleave”.

B1: interferon-inducible T cell α-chemoattractant: chemokine, known DP4 substrate (protein, UniProt O14625 22-94, looked up)
C-X-C motif chemokine 11: FPMFKRGRCLCIGPGVKAVKVADIEKASIMYPSNNCDKIEVIITLKENKGQRCLNPKSKQARLIIKKVERKNF
As for B1, the “DP8 cleavage of chemokines in vitro” value in the data set on DP8 [4] is on record as “cleavage”.
